Experimental data published in the supplement of paper PMC11061612.

Legend:
[1] = test system: KYSE-70 (Esophageal Squamous Cell Carcinoma); assay: combination Emax (second highest fraction inhibited in the dose matrix, 72 h); higher = more inhibition; extreme values may be limits of the assay
Summary of the method: (§1)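 After 24 hours at 37°C and 5% CO2 in 1536-well plates, cells in DMEM/F12 or RPMI plus 10% FBS received two-drug dose matrices for 72 hours. Viability came from CellTiter-Glo 2.0 luminescence and was scaled as inhibition, anchored at 0 by vehicle wells and at 1 by blank wells. Combination Emax is taken as the second-highest inhibition in the matrix, and Bliss excess as the observed combination effect less EA + EB − EA·EB, with EA and EB the single-agent effects.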

[2] = test system: RPMI-8866 (Chronic Myelogenous Leukemia); assay: as above
Summary of the method: as §1

[3] = test system: Becker (Low Grade Glioma); assay: as above
Summary of the method: as §1

[4] = test system: KYM-1 (Rhabdomyosarcoma); assay: as above
Summary of the method: as §1

[5] = test system: AsPC-1 (Pancreatic Carcinoma); assay: as above
Summary of the method: as §1

[6] = test system: NCI-H1755 (Lung Adenocarcinoma); assay: as above
Summary of the method: as §1

[7] = test system: Calu-6 (Non-Small Cell Lung Carcinoma); assay: as above
Summary of the method: as §1

[8] = test system: CHL-1 (Melanoma); assay: as above
Summary of the method: as §1

[9] = test system: COLO-684 (Endometrial Carcinoma); assay: as above
Summary of the method: as §1

[10] = test system: HTC-C3 (Thyroid Gland Carcinoma); assay: as above
Summary of the method: as §1

[11] = test system: NCI-H1563 (Lung Adenocarcinoma); assay: as above
Summary of the method: as §1

[12] = test system: RMG-I (Ovarian Carcinoma); assay: as above
Summary of the method: as §1

[13] = test system: OCI-AML5 (Acute Myeloid Leukemia); assay: as above
Summary of the method: as §1

[14] = test system: NCI-H1623 (Lung Adenocarcinoma); assay: as above
Summary of the method: as §1

[15] = test system: EB-3 (Burkitt's Lymphoma); assay: as above
Summary of the method: as §1

[16] = test system: JHH-1 (Hepatocellular Carcinoma); assay: as above
Summary of the method: as §1

[17] = test system: NCI-H1155 (Non-Small Cell Lung Carcinoma); assay: as above
Summary of the method: as §1

[18] = test system: FLO-1 (Esophageal Adenocarcinoma); assay: as above
Summary of the method: as §1

[19] = test system: OVTOKO (Ovarian Carcinoma); assay: Bliss excess, mean over the matrix (fraction); higher = more synergy
Summary of the method: as §1

[20] = test system: JHH-1 (Hepatocellular Carcinoma); assay: as above
Summary of the method: as §1
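Wherever Bliss excess, mean over the matrix is given: after 72 h of two-drug dosing.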

Compound	combination Emax [1]	combination Emax [2]	combination Emax [3]	combination Emax [4]	combination Emax [5]	combination Emax [6]	combination Emax [7]	combination Emax [8]	combination Emax [9]	combination Emax [10]	combination Emax [11]	combination Emax [12]	combination Emax [13]	combination Emax [14]	combination Emax [15]	combination Emax [16]	combination Emax [17]	combination Emax [18]	Bliss excess [19]	Bliss excess [20]
Cc1cc2ncnn2cc1Nc1ncc2c(n1)n(C1CCOCC1)c(=O)n2C [AZD7648] + CN(C)CCCOc1ccc(-c2ccc3ncc4c(c3c2)n(C2CCOCC2)c(=O)n4C)cn1 [AZD0156] (first compound max 10 µM, 7x7, partner max 1 µM)	0.211	0.638	0.184	0.165	0.274	0.362	0.381	0.253	0.28	0.161	0.49	0.431	0.297	0.257	0.585	0.207	0.319	0.358	-0.0537	0.0063
Cc1cc2ncnn2cc1Nc1ncc2c(n1)n(C1CCOCC1)c(=O)n2C [AZD7648] + C[C@@H]1COCCN1C2=NC(=NC(=C2)C3(CC3)[S@](=N)(=O)C)C4=C5C=CNC5=NC=C4 [AZD6738] (first compound max 10 µM, 7x7, partner max 10 µM)	0.414	0.969	0.607	0.697	0.369	0.883	0.741	0.798	0.764	0.802	0.498	0.53	0.882	0.588	0.663	0.476	0.746	0.668	0.0118	0.0354
Cc1cc2ncnn2cc1Nc1ncc2c(n1)n(C1CCOCC1)c(=O)n2C [AZD7648] + O=C(c1cc(Cc2n[nH]c(=O)c3ccccc23)ccc1F)N1CCN(C(=O)C2CC2)CC1 [Olaparib] (first compound max 10 µM, 7x7, partner max 10 µM)	0.124	0.594	0.12	0.274	0.0586	0.263	0.355	0.134	0.238	0.214	0.331	0.192	0.25	0.446	0.377	0.105	0.293	0.208	-0.0433	-0.0621
NC1(C(=O)N[C@@H](CCO)c2ccc(Cl)cc2)CCN(c2ncnc3[nH]ccc23)CC1 [Capivasertib] + CC(=O)c1c(C)c2cnc(Nc3ccc(N4CCNCC4)cn3)nc2n(C2CCCC2)c1=O [Palbociclib] (first compound max 10 µM, 7x7, partner max 10 µM)	0.377	0.75	0.624	0.85	0.396	0.659	0.415	0.191	0.632	0.474	0.47	0.288	0.479	0.506	0.428	0.143	0.566	0.551	-0.0688	-0.0687
NC1(C(=O)N[C@@H](CCO)c2ccc(Cl)cc2)CCN(c2ncnc3[nH]ccc23)CC1 [Capivasertib] + CC(C)n1c(=O)n(C)c2cnc3cc(F)c(-c4ccc(OCCCN5CCCCC5)nc4)cc3c21 [AZD1390] (first compound max 10 µM, 7x7, partner max 0.3 µM)	0.259	0.402	0.522	0.52	0.208	0.443	0.222	0.126	0.56	0.308	0.452	0.292	0.22	0.477	0.522	0.169	0.357	0.346	-0.0752	-0.0495
NC1(C(=O)N[C@@H](CCO)c2ccc(Cl)cc2)CCN(c2ncnc3[nH]ccc23)CC1 [Capivasertib] + CCN(CCO)CCCOc1ccc2c(Nc3cc(CC(=O)Nc4cccc(F)c4)[nH]n3)ncnc2c1 [AZD2811] (first compound max 10 µM, 7x7, partner max 1 µM)	0.272	0.562	0.535	0.559	0.233	0.648	0.413	0.567	0.659	0.405	0.441	0.315	0.974	0.555	0.458	0.232	0.864	0.415	-0.0109	-0.0517
NC1(C(=O)N[C@@H](CCO)c2ccc(Cl)cc2)CCN(c2ncnc3[nH]ccc23)CC1 [Capivasertib] + COc1nnc2ccc(N3CCC(c4ccc(OCCN5CCN(C)C(=O)[C@H]5C)cc4)CC3)nn12 [AZD5153] (first compound max 10 µM, 7x7, partner max 1 µM)	0.358	0.839	0.593	0.874	0.268	0.717	0.461	0.708	0.782	0.791	0.76	0.456	0.769	0.52	0.752	0.378	0.822	0.612	0.0497	-0.0072
NC1(C(=O)N[C@@H](CCO)c2ccc(Cl)cc2)CCN(c2ncnc3[nH]ccc23)CC1 [Capivasertib] + C[C@@H]1COCCN1C2=NC(=NC(=C2)C3(CC3)[S@](=N)(=O)C)C4=C5C=CNC5=NC=C4 [AZD6738] (first compound max 10 µM, 7x7, partner max 10 µM)	0.377	0.911	0.747	0.969	0.329	0.83	0.792	0.732	0.798	0.823	0.501	0.385	0.917	0.82	0.651	0.409	0.816	0.652	-0.0084	-0.0294
NC1(C(=O)N[C@@H](CCO)c2ccc(Cl)cc2)CCN(c2ncnc3[nH]ccc23)CC1 [Capivasertib] + Cn1cnc2c(F)c(Nc3ccc(Br)cc3Cl)c(C(=O)NOCCO)cc21 [Selumetinib] (first compound max 10 µM, 7x7, partner max 10 µM)	0.374	0.432	0.65	0.52	0.491	0.644	0.707	0.367	0.63	0.772	0.4	0.392	0.951	0.813	0.325	0.295	0.473	0.559	-0.0566	-0.0896
Cc1nc(Nc2ncc(C(=O)Nc3c(C)cccc3Cl)s2)cc(N2CCN(CCO)CC2)n1 [Dasatinib] + CC(=O)Nc1cccc(-n2c(=O)n(C3CC3)c(=O)c3c(Nc4ccc(I)cc4F)n(C)c(=O)c(C)c32)c1 [Trametinib] (first compound max 2 µM, 7x7, partner max 1 µM)	0.278	0.556	0.5	0.401	0.612	0.961	0.969	0.409	0.0848	0.906	0.447	0.505	0.81	0.576	0.362	0.806	0.237	0.966	-0.139	0.0492
COc1cccc2c1C(=O)c1c(O)c3c(c(O)c1C2=O)C[C@@](O)(C(=O)CO)C[C@@H]3O[C@H]1C[C@H](N)[C@H](O)[C@H](C)O1 [Doxorubicin] + Cc1cc2ncnn2cc1Nc1ncc2c(n1)n(C1CCOCC1)c(=O)n2C [AZD7648] (first compound max 1 µM, 7x7, partner max 10 µM)	0.502	0.996	0.555	0.956	0.267	0.776	0.516	0.767	0.627	0.427	0.58	0.599	0.988	0.647	0.919	0.353	0.916	0.927	-0.0578	-0.0314
COc1cc2ncnc(Nc3ccc(F)c(Cl)c3)c2cc1OCCCN1CCOCC1 [Gefitinib] + CC(C)n1c(=O)n(C)c2cnc3cc(F)c(-c4ccc(OCCCN5CCCCC5)nc4)cc3c21 [AZD1390] (first compound max 10 µM, 7x7, partner max 0.3 µM)	0.098	0.119	0.126	0.224	0.13	0.264	0.128	0.409	0.0995	0.0317	0.228	0.413	0.145	0.904	0.456	0.247	0.0815	0.357	-0.0672	-0.0772
CS(=O)(=O)CCNCc1ccc(-c2ccc3ncnc(Nc4ccc(OCc5cccc(F)c5)c(Cl)c4)c3c2)o1 [Lapatinib] + C[C@@H](Oc1cc(-c2cnn(C3CCNCC3)c2)cnc1N)c1c(Cl)ccc(F)c1Cl [Crizotinib] (first compound max 10 µM, 7x7, partner max 10 µM)	0.585	0.884	0.725	0.971	0.345	0.957	0.815	0.757	0.78	0.956	0.776	0.851	0.988	0.987	0.909	0.952	0.61	0.881	-0.0437	-0.0906
